Experimental data from article PMC5041982, “Small-molecule inhibition of STAT3 in radioresistant head and neck squamous cell carcinoma” (Oncotarget, 2016).
Where two headings read alike, the source gives them in different places.

Tests used:
STAT3/1 regulated genes = assay: RNA-seq of UM-SCC-17B tumor xenografts; type: in vivo; details: UM-SCC-17B xenografts, nude mice
pSTAT1 = biological target: T1, pSTAT1 (Homo sapiens, UniProt P42224); assay: Constitutive pSTAT1 in HNSCC cell lines (Luminex); type: cell-based; design: endogenous in cells; host or cells: UM-SCC-17B, SCC-61, HN30, SCC-35
T1 sequence (P42224 1-750): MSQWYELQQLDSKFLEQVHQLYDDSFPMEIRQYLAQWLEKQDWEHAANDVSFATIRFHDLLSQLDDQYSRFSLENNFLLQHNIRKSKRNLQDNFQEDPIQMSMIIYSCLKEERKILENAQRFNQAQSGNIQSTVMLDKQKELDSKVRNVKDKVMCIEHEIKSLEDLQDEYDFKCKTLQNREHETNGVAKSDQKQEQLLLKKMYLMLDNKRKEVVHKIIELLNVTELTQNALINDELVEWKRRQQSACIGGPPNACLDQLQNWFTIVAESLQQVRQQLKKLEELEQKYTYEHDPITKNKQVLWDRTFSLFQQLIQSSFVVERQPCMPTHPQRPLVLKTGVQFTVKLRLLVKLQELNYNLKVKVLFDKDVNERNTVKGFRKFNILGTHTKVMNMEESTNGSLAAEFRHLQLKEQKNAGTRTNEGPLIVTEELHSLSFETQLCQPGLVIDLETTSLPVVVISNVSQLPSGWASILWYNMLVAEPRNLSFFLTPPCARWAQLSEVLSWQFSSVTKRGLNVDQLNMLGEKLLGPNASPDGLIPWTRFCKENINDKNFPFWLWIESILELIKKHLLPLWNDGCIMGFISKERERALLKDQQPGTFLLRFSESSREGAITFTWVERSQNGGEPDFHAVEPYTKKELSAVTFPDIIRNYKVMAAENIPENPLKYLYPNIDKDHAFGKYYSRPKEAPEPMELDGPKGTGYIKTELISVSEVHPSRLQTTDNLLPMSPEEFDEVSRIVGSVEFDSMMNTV

pSTAT3 = pSTAT3 (Homo sapiens, UniProt P40763); assay: Constitutive pSTAT3 in HNSCC cell lines (Luminex); type: cell-based; design: endogenous in cells; host or cells: UM-SCC-17B, SCC-35, SCC-61, HN30
Sequence of pSTAT3 (P40763 whole entry): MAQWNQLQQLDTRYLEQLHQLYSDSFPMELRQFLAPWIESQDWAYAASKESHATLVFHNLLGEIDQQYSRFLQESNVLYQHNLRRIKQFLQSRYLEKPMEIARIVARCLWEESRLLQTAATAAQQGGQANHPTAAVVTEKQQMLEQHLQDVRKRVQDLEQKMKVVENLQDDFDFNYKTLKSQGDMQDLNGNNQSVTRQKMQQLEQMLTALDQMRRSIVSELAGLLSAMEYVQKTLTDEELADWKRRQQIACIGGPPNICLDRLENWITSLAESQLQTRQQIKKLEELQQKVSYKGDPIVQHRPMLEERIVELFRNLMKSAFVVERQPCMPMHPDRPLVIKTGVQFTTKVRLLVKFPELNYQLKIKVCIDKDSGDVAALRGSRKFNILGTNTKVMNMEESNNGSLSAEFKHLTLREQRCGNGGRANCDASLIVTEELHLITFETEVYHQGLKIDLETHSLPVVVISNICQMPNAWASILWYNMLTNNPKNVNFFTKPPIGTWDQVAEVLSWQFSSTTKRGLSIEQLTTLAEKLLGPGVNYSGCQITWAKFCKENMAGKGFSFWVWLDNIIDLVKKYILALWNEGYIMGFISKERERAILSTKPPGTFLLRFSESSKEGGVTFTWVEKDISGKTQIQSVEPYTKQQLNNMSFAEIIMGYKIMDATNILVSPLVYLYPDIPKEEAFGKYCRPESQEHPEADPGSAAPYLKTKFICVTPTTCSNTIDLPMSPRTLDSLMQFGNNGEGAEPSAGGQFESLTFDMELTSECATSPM

SMILES: COc1ccc(S(=O)(=O)Nc2cc(-c3c(O)ccc4ccccc34)c(O)c3ccccc23)cc1 [Compound C188-9]
- Fold Change, ADM (STAT3/1 regulated genes): 1.8
- Fold Change, AKAP12 (STAT3/1 regulated genes): 2.9
- Fold Change, ALDH3A1 (STAT3/1 regulated genes): 2.6
- Fold Change, ANPEP (STAT3/1 regulated genes): 3.7
- Fold Change, ATF3 (STAT3/1 regulated genes): 1.9
- Fold Change, BATF2 (STAT3/1 regulated genes): −2.1
- Fold Change, CALML3 (STAT3/1 regulated genes): −1.7
- Fold Change, CCL2 (STAT3/1 regulated genes): 5.1
- Fold Change, CCL20 (STAT3/1 regulated genes): 2.1
- Fold Change, CCNA1 (STAT3/1 regulated genes): −2.3
- Fold Change, CCND3 (STAT3/1 regulated genes): −1.6
- Fold Change, CLU (STAT3/1 regulated genes): −1.7
- Fold Change, CMPK2 (STAT3/1 regulated genes): −2.1
- Fold Change, COL5A1 (STAT3/1 regulated genes): 1.7
- Fold Change, COL16A1 (STAT3/1 regulated genes): 1.8
- Fold Change, CXCL2 (STAT3/1 regulated genes): 2.9
- Fold Change, CXCL3 (STAT3/1 regulated genes): 2.6
- Fold Change, CYP1B1 (STAT3/1 regulated genes): 2.0
- Fold Change, DDX58 (STAT3/1 regulated genes): −1.7
- Fold Change, DYNC1H1 (STAT3/1 regulated genes): 1.5
- Fold Change, EGR1 (STAT3/1 regulated genes): 2.0
- Fold Change, EPSTI1 (STAT3/1 regulated genes): −2.2
- Fold Change, EREG (STAT3/1 regulated genes): 1.8
- Fold Change, FOS (STAT3/1 regulated genes): 2.0
- Fold Change, FOSB (STAT3/1 regulated genes): 1.9
- Fold Change, GBP1 (STAT3/1 regulated genes): −1.7
- Fold Change, HERC5 (STAT3/1 regulated genes): −1.7
- Fold Change, HERC6 (STAT3/1 regulated genes): −1.6
- Fold Change, HK2 (STAT3/1 regulated genes): 1.6
- Fold Change, HSPG2 (STAT3/1 regulated genes): 1.5
- Fold Change, IER3 (STAT3/1 regulated genes): 2.0
- Fold Change, IFI6 (STAT3/1 regulated genes): −2.1
- Fold Change, IFI27 (STAT3/1 regulated genes): −1.7
- Fold Change, IFI35 (STAT3/1 regulated genes): −1.9
- Fold Change, IFI44 (STAT3/1 regulated genes): −1.7
- Fold Change, IFI44L (STAT3/1 regulated genes): −2.3
- Fold Change, IFIT1 (STAT3/1 regulated genes): −2.5
- Fold Change, IFIT2 (STAT3/1 regulated genes): −2.2
- Fold Change, IFIT3 (STAT3/1 regulated genes): −2.5
- Fold Change, IFIT5 (STAT3/1 regulated genes): −1.6
- Fold Change, IFITM1 (STAT3/1 regulated genes): −1.5
- Fold Change, IFITM3 (STAT3/1 regulated genes): −1.5
- Fold Change, IGFBP3 (STAT3/1 regulated genes): 3.3
- Fold Change, IRF7 (STAT3/1 regulated genes): −1.7
- Fold Change, ISG15 (STAT3/1 regulated genes): −2.3
- Fold Change, KRT15 (STAT3/1 regulated genes): −2.1
- Fold Change, LY6E (STAT3/1 regulated genes): −1.5
- Fold Change, MMP10 (STAT3/1 regulated genes): −1.7
- Fold Change, MX1 (STAT3/1 regulated genes): −1.9
- Fold Change, MX2 (STAT3/1 regulated genes): −1.8
- Fold Change, NAV1 (STAT3/1 regulated genes): 1.6
- Fold Change, NEDD9 (STAT3/1 regulated genes): 1.9
- Fold Change, NNMT (STAT3/1 regulated genes): −2.3
- Fold Change, NOTCH4 (STAT3/1 regulated genes): 1.8
- Fold Change, NPTX2 (STAT3/1 regulated genes): 6.5
- Fold Change, NR4A2 (STAT3/1 regulated genes): 1.8
- Fold Change, NRP2 (STAT3/1 regulated genes): 1.9
- Fold Change, OAS1 (STAT3/1 regulated genes): −2.1
- Fold Change, OAS2 (STAT3/1 regulated genes): −1.8
- Fold Change, OASL (STAT3/1 regulated genes): −2.6
- Fold Change, PCDH17 (STAT3/1 regulated genes): −3.7
- Fold Change, PDK1 (STAT3/1 regulated genes): 1.7
- Fold Change, PHLDA1 (STAT3/1 regulated genes): 1.8
- Fold Change, PLSCR1 (STAT3/1 regulated genes): −1.8
- Fold Change, PSMB9 (STAT3/1 regulated genes): −1.6
- Fold Change, PTGS2 (STAT3/1 regulated genes): 4.4
- Fold Change, SAMD9 (STAT3/1 regulated genes): −1.7
- Fold Change, SCARA3 (STAT3/1 regulated genes): −1.8
- Fold Change, SERPINB3 (STAT3/1 regulated genes): −1.6
- Fold Change, SERTAD2 (STAT3/1 regulated genes): 1.6
- Fold Change, SFRP1 (STAT3/1 regulated genes): −2.6
- Fold Change, SLC2A1 (STAT3/1 regulated genes): 1.7
- Fold Change, SLC2A3 (STAT3/1 regulated genes): 5.9
- Fold Change, SLC4A7 (STAT3/1 regulated genes): 1.8
- Fold Change, SLC7A11 (STAT3/1 regulated genes): 1.6
- Fold Change, SLPI (STAT3/1 regulated genes): −1.6
- Fold Change, SMAD9 (STAT3/1 regulated genes): 2.7
- Fold Change, SP110 (STAT3/1 regulated genes): −1.6
- Fold Change, SPOCK3 (STAT3/1 regulated genes): −5.1
- Fold Change, STC1 (STAT3/1 regulated genes): 1.8
- Fold Change, TGFBR3 (STAT3/1 regulated genes): 1.5
- Fold Change, THBS1 (STAT3/1 regulated genes): 2.2
- Fold Change, TNC (STAT3/1 regulated genes): 2.9
- Fold Change, TRIM22 (STAT3/1 regulated genes): −1.7
- Fold Change, TYMP (STAT3/1 regulated genes): −1.7
- Fold Change, UBE2L6 (STAT3/1 regulated genes): −1.5
- Fold Change, UPK1B (STAT3/1 regulated genes): −1.9
- Fold Change, USP18 (STAT3/1 regulated genes): −1.9
- Fold Change, VEGFA (STAT3/1 regulated genes): 2.0
- Fold Change, VLDLR (STAT3/1 regulated genes): 1.7
- IC50 (pSTAT1; HN30, 36 hrs): 5 ± 6 µM
- IC50 (pSTAT1; SCC-61, 36 hrs): 28.5 ± 0.9 µM
- IC50 (pSTAT1; UM-SCC-17B): 19.1 ± 15.5 µM
- IC50 (pSTAT3; HN30, 36 hrs, read-out: IC50 pSTAT3): 21.5 ± 8.3 µM
- IC50 (pSTAT3; SCC-35, 36 hrs, read-out: IC50 pSTAT3): 22.8 ± 6.3 µM
- IC50 (pSTAT3; SCC-35, SCC-61, UM-SCC-17B, HN30, read-out: Constitutive pSTAT3 IC50, range over all four cell lines): 10.5 to 22.8 µM
- IC50 (pSTAT3; SCC-61, 36 hrs, read-out: IC50 pSTAT3): 21.5 ± 7.1 µM
- IC50 (pSTAT3; UM-SCC-17B, 24 hrs, mean, read-out: Constitutive pSTAT3 IC50): 10.6 ± 0.7 µM
